For data set [1], the system named is [Sar^9, Met(O2)^11]substance P-induced tapping. The data set is described as follows: [Sar9, Met(O2)11]substance P-induced tapping test in gerbils. In kind it is in vivo. Conditions: repetitive hind paw tapping, Examples 3 and 5 compared with the corresponding no halosubstituted compounds. On the procedure: The activity of the compounds of this invention against CNS disorders is determined in a [Sar^9, Met(O2)^11]substance P-induced tapping test in gerbils. More specifically, gerbils are lightly anesthetized with ether and the skull surface is exposed. [Sar^9, Met(O2)^11]substance P or vehicle (5 μl) are administered directly into the lateral ventricles via a 25 gauge needle inserted 3.5 mm below lambda. Following injection, gerbils are placed in 2 l beaker individually and monitored for repetitive hind paw tapping. Some compounds prepared in the following Examples were tested in accordance with these testing methods.

Molecules are shown by their SMILES.

These results are taken from patent US6506775B1, “Substituted benzylaminopiperidine compounds” (Pfizer INC, priority 1995, dated 2003).

What is called melting point is the temperature, or range, at which the solid turns liquid. Compound `COc1ccc(C(C)(C)C#CC(F)(F)F)cc1CN[C@H]1CCCN[C@H]1c1ccccc1.Cl.Cl` displayed a melting point of 225 to 227 °C.

Compound `COc1ccc(C(F)(F)F)cc1CN[C@H]1CCCN[C@H]1c1ccccc1.Cl.Cl` [Example 3, (2S,3S)-3-(2-Methoxy-5-(trifluoromethyl)benzyl)amino-2-phenylpiperidine dihydrochloride] gave a melting point of 228 to 233 °C. Besides, the “activity against CNS disorders” value in data set [1] is on record as “unexpectedly improved activity against CNS disorders”. In turn, `COc1ccc(C(F)(C(F)(F)F)C(F)(F)F)cc1CN[C@H]1CCCN[C@H]1c1ccccc1.Cl.Cl` returned a melting point of 265 to 270 °C.

The compound `Cl.Cl.Fc1ccc(C(F)(F)F)cc1CN[C@H]1CCCN[C@H]1c1ccccc1` came in with a melting point of 195 to 203 °C. The compound `CC(F)(F)c1ccc(OC(F)(F)F)c(CN[C@H]2CCCN[C@H]2c2ccccc2)c1.Cl.Cl` displayed a melting point of 172 to 174 °C. The same measure, in the same setting: next, `Cl.Cl.FC(F)(F)c1ccc(Oc2ccccc2)c(CN[C@H]2CCCN[C@H]2c2ccccc2)c1`: 190 to 197 °C. The compound `COc1ccc(C(C(F)(F)F)C(F)(F)F)cc1CN[C@H]1CCCN[C@H]1c1ccccc1.Cl.Cl` [Example 5, (2S,3S)-2-Phenyl-3-(5-(2,2,2-trifluoro-1-(trifluoromethyl)ethyl)-2-methoxybenzyl)aminopiperidine dihydrochloride] came in with a melting point of 290 to 294 °C. The “activity against CNS disorders” value in data set [1] was “unexpectedly improved activity against CNS disorders”.
